The target of the experiment is human M4 receptor (Homo sapiens (Human), UniProt P08173). Briefly: Radioligand (tritiated N-methylscopolamine) binding assay, M4. To be noted: Ki against the M4 receptor; membranes from CHO cells expressing human M4; tritiated N-methylscopolamine 1.5 nM; read-out: Ki. The procedure, abridged:
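Test compound (12 concentrations, 10 μM to […]), 1.5 nM radioligand and CHO receptor membranes were co-incubated at 37 °C for 90 minutes in 50 mM HEPES buffer with 100 mM NaCl, 5 mM MgCl2 and 1 mM EDTA, pH 7.4. Membranes were then harvested onto polyethylenimine-pretreated filters and radioactivity was counted to determine Ki.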

Chain of human M4 receptor (P08173 whole entry): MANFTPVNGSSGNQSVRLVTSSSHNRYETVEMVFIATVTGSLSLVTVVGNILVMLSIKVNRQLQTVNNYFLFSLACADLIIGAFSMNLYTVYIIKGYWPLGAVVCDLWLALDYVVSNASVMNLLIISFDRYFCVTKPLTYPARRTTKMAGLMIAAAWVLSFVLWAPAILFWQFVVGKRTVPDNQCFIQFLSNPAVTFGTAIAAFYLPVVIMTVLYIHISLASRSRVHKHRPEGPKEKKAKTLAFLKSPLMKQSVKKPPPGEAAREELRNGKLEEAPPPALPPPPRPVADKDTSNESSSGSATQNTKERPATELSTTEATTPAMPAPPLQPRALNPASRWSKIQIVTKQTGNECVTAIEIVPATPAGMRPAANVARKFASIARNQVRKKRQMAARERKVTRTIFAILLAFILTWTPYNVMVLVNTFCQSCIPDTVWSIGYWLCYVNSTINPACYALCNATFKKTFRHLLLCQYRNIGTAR

For `O=C(NCCC1CCN(Cc2ccccc2)CC1)C1(O)CCN(c2ccc(OC(F)(F)F)c(F)c2)CC1` [10-41, N-[2-(1-benzylpiperidin-4-yl)ethyl]-1-[3-fluoro-4-(trifluoromethoxy)phenyl]-4-hydroxypiperidine-4-carboxamide], the Ki fell in the range of 10 to 100 nM. In the case of `O=C(NCCC1CCN(Cc2ccccc2)CC1)C1CCN(c2cccc3c2OC(F)(F)O3)CC1` [10-45, N-[2-(1-benzylpiperidin-4-yl)ethyl]-1-(2,2-difluoro-2H-1,3-benzodioxol-4-yl)piperidine-4-carboxamide] it was 10 to 100 nM. As for `N#Cc1cc(OC(F)(F)F)cc(N2CCC(O)(C(=O)NCCC3CCN(Cc4ccccc4)CC3)CC2)c1` [10-46, N-[2-(1-benzylpiperidin-4-yl)ethyl]-1-[3-cyano-5-(trifluoromethoxy)phenyl]-4-hydroxypiperidine-4-carboxamide], the Ki is 10 to 100 nM.

On to `COC1(C(=O)NCCC2CCN(Cc3ccccc3)CC2)CCN(c2cc(C(F)(F)F)ccn2)CC1` [10-47, N-[2-(1-benzylpiperidin-4-yl)ethyl]-4-methoxy-1-[4-(trifluoromethyl)pyridin-2-yl]piperidine-4-carboxamide], for which the Ki fell in the range of 10 to 100 nM.

For the compound `COC1(C(=O)NCCC2CCN(Cc3ccccc3)CC2)CCN(c2ccc(C(F)(F)F)cn2)CC1` [10-48, N-[2-(1-benzylpiperidin-4-yl)ethyl]-4-methoxy-1-[5-(trifluoromethyl)pyridin-2-yl]piperidine-4-carboxamide], the Ki is 100 to 1000 nM.

With `O=C(NCCC1CCN(Cc2ccccc2)CC1)[C@@H]1CCN(c2cccc(OC(F)(F)F)c2)C1` [10-49, (3R)-N-[2-(1-benzylpiperidin-4-yl)ethyl]-1-[3-(trifluoromethoxy)phenyl]pyrrolidine-3-carboxamide], the Ki lay in the range of 100 to 1000 nM. The value for `N#Cc1ccc(N2CCC(C(=O)NCCC3CCN(Cc4ccccc4)CC3)CC2)c(F)c1` [10-50, N-[2-(1-benzylpiperidin-4-yl)ethyl]-1-(4-cyano-2-fluorophenyl)piperidine-4-carboxamide] was 100 to 1000 nM. The value for `N#Cc1cc(N2CCC(O)(C(=O)NCCC3CCN(Cc4ccccc4)CC3)CC2)ccc1F` [10-51, N-[2-(1-benzylpiperidin-4-yl)ethyl]-1-(3-cyano-4-fluorophenyl)-4-hydroxypiperidine-4-carboxamide] was 100 to 1000 nM; that for `O=C(NCCC1CCN(Cc2ccccc2)CC1)[C@H]1CCN(c2cccc(OC(F)(F)F)c2)C1` [10-52, (3S)-N-[2-(1-benzylpiperidin-4-yl)ethyl]-1-[3-(trifluoromethoxy)phenyl]pyrrolidine-3-carboxamide] was 100 to 1000 nM; that for `COc1cccc(N2CCC(C(=O)NCCC3CCN(Cc4ccccc4)CC3)CC2)c1` [10-53, N-[2-(1-benzylpiperidin-4-yl)ethyl]-1-(3-methoxyphenyl)piperidine-4-carboxamide] was 100 to 1000 nM. For `O=C(NCCC1CCN(Cc2ccccc2)CC1)C1(F)CCN(c2ccc(OC(F)(F)F)cc2)CC1` [10-55, N-[2-(1-benzylpiperidin-4-yl)ethyl]-4-fluoro-1-[4-(trifluoromethoxy)phenyl]piperidine-4-carboxamide], the Ki lay in the range of 10 to 100 nM. Take `O=C(NCCC1CCN(Cc2ccccc2)CC1)C1CCN(c2ccccc2F)CC1` [10-59, N-[2-(1-benzylpiperidin-4-yl)ethyl]-1-(2-fluorophenyl)piperidine-4-carboxamide]: the Ki lay in the range of 100 to 1000 nM. In the case of `COc1ccc(N2CCC(C(=O)NCCC3CCN(Cc4ccccc4)CC3)CC2)cc1` [10-60, N-[2-(1-benzylpiperidin-4-yl)ethyl]-1-(4-methoxyphenyl)piperidine-4-carboxamide] it was 100 to 1000 nM; in that of `O=C(NCCC1CCN(Cc2ccccc2)CC1)C1(O)CCN(c2ccc(OC(F)(F)F)cn2)CC1` [10-61, N-[2-(1-benzylpiperidin-4-yl)ethyl]-4-hydroxy-1-[5-(trifluoromethoxy)pyridin-2-yl]piperidine-4-carboxamide], 100 to 1000 nM; in that of `O=C(NCCC1CCN(Cc2ccccc2)CC1)C1(O)CCN(c2cccc(OC(F)(F)F)c2)CC1` [10-62, N-[2-(1-benzylpiperidin-4-yl)ethyl]-4-hydroxy-1-[3-(trifluoromethoxy)phenyl]piperidine-4-carboxamide], 100 to 1000 nM. The value for `COC1(C(=O)NCCC2CCN(Cc3ccccc3)CC2)CCN(c2ccc(OC(F)(F)F)cn2)CC1` [10-63, N-[2-(1-benzylpiperidin-4-yl)ethyl]-4-methoxy-1-[5-(trifluoromethoxy)pyridin-2-yl]piperidine-4-carboxamide] was 100 to 1000 nM.

Consider `O=C(NCCC1CCN(Cc2ccccc2)CC1)C1(O)CCN(c2cc(F)ccc2F)CC1` [10-64, N-[2-(1-benzylpiperidin-4-yl)ethyl]-1-(2,5-difluorophenyl)-4-hydroxypiperidine-4-carboxamide], for which the inhibition constant Ki fell in the range of 100 to 1000 nM. The value for `CS(=O)(=O)c1cccc(N2CCC(C(=O)NCCC3CCN(Cc4ccccc4)CC3)CC2)c1` [10-65, N-[2-(1-benzylpiperidin-4-yl)ethyl]-1-(3-methanesulfonylphenyl)piperidine-4-carboxamide] was 100 to 1000 nM. The value for `N#Cc1ccnc(N2CCC(C(=O)NCCC3CCN(Cc4ccccc4)CC3)CC2)c1` [10-66, N-[2-(1-benzylpiperidin-4-yl)ethyl]-1-(4-cyanopyridin-2-yl)piperidine-4-carboxamide] was 100 to 1000 nM; that for `N#Cc1ccccc1N1CCC(C(=O)NCCC2CCN(Cc3ccccc3)CC2)CC1` [10-67, N-[2-(1-benzylpiperidin-4-yl)ethyl]-1-(2-cyanophenyl)piperidine-4-carboxamide] was 100 to 1000 nM.

`O=C(NCCC1CCN(Cc2ccccc2)CC1)C1CCN(c2ccc(C(F)(F)F)nc2)CC1` [10-68, N-[2-(1-benzylpiperidin-4-yl)ethyl]-1-[6-(trifluoromethyl)pyridin-3-yl]piperidine-4-carboxamide]: the Ki fell in the range of 100 to 1000 nM. The value for `N#Cc1cc(F)ccc1N1CCC(C(=O)NCCC2CCN(Cc3ccccc3)CC2)CC1` [10-69, N-[2-(1-benzylpiperidin-4-yl)ethyl]-1-(2-cyano-4-fluorophenyl)piperidine-4-carboxamide] was 100 to 1000 nM.

In the case of `O=C(NCCC1CCN(Cc2ccccc2)CC1)C1CCN(c2ccccc2OC(F)(F)F)CC1` [10-70, N-[2-(1-benzylpiperidin-4-yl)ethyl]-1-[2-(trifluoromethoxy)phenyl]piperidine-4-carboxamide], the Ki is 100 to 1000 nM. The value for `O=C(NCCC1CCN(Cc2ccccc2)CC1)[C@H]1CCN(c2ccc(OC(F)(F)F)cc2)C1` [10-71, (3S)-N-[2-(1-benzylpiperidin-4-yl)ethyl]-1-[4-(trifluoromethoxy)phenyl]pyrrolidine-3-carboxamide] was 100 to 1000 nM. Consider `O=C(NCCC1CCN(Cc2ccccc2)CC1)[C@@H]1CCN(c2ccc(OC(F)(F)F)cc2)C1` [10-72, (3R)-N-[2-(1-benzylpiperidin-4-yl)ethyl]-1-[4-(trifluoromethoxy)phenyl]pyrrolidine-3-carboxamide], for which the Ki is 100 to 1000 nM.

With `O=C(NCCC1CCN(Cc2ccccc2)CC1)C1CCN(c2ccc(F)cn2)CC1` [10-73, N-[2-(1-benzylpiperidin-4-yl)ethyl]-1-(5-fluoropyridin-2-yl)piperidine-4-carboxamide], the Ki lay within 100 to 1000 nM.

As for `Cc1cc(C)nc(N2CCC(C(=O)NCCC3CCN(Cc4ccccc4)CC3)CC2)n1` [10-74, N-[2-(1-benzylpiperidin-4-yl)ethyl]-1-(4,6-dimethylpyrimidin-2-yl)piperidine-4-carboxamide], the Ki lay within 100 to 1000 nM. In the case of `COC1(C(=O)NCCC2CCN(Cc3ccccc3)CC2)CCN(c2ccccc2OC(F)(F)F)CC1` [10-75, N-[2-(1-benzylpiperidin-4-yl)ethyl]-4-methoxy-1-[2-(trifluoromethoxy)phenyl]piperidine-4-carboxamide] it was 100 to 1000 nM. In the case of `O=C(NCCC1CCN(Cc2ccccc2)CC1)C1CCN(c2ccc(OC(F)F)cc2)CC1` [10-76, N-[2-(1-benzylpiperidin-4-yl)ethyl]-1-[4-(difluoromethoxy)phenyl]piperidine-4-carboxamide] it was 10 to 100 nM.

Take `N#Cc1cccc(N2CCC(C(=O)NCCC3CCN(Cc4ccccc4)CC3)CC2)c1` [10-77, N-[2-(1-benzylpiperidin-4-yl)ethyl]-1-(3-cyanophenyl)piperidine-4-carboxamide]: the Ki is 10 to 100 nM. The value for `N#Cc1ccc(N2CCC(C(=O)NCCC3CCN(Cc4ccccc4)CC3)CC2)cc1F` [10-78, N-[2-(1-benzylpiperidin-4-yl)ethyl]-1-(4-cyano-3-fluorophenyl)piperidine-4-carboxamide] was 10 to 100 nM. For `O=C(NCCC1CCN(Cc2ccc(O)cc2)CC1)C1CCN(c2ccc(OC(F)(F)F)cc2)CC1` [11-1, N-(2-{1-[(4-hydroxyphenyl)methyl]piperidin-4-yl}ethyl)-1-[4-(trifluoromethoxy)phenyl]piperidine-4-carboxamide], the Ki is 10 to 100 nM.

With `O=C(NCCC1CCN(Cc2cccnc2F)CC1)c1ccc(Oc2ccccc2)cc1` [11-2, N-(2-{1-[(2-fluoropyridin-3-yl)methyl]piperidin-4-yl}ethyl)-4-phenoxybenzamide], the Ki is 10 to 100 nM.

With `O=C(NCCC1CCN(Cc2ccccc2O)CC1)c1ccc(OCc2ccccc2)cc1` [11-3, 4-(benzyloxy)-N-(2-{1-[(2-hydroxyphenyl)methyl]piperidin-4-yl}ethyl)benzamide], the Ki lay within 10 to 100 nM. The value for `Cc1nc(CN2CCC(CCNC(=O)C3CCN(c4ccc(OC(F)(F)F)cc4)CC3)CC2)cs1` [11-4, N-(2-{1-[(2-methyl-1,3-thiazol-4-yl)methyl]piperidin-4-yl}ethyl)-1-[4-(trifluoromethoxy)phenyl]piperidine-4-carboxamide] was 100 to 1000 nM.

`O=C(NCCC1CCN(Cc2ccccc2O)CC1)c1ccc(Oc2ccccc2)cc1` [11-5, N-(2-{1-[(2-hydroxyphenyl)methyl]piperidin-4-yl}ethyl)-4-phenoxybenzamide]: the inhibitory constant (Ki) fell in the range of 100 to 1000 nM.
